# Source: paper PMC7617869, “Molecular glues that inhibit deubiquitylase activity and inflammatory signaling” (Nature Structural & Molecular Biology, 2025)
# Values joined by “and” are separate entries in the source; they are usually repeats but may differ in a detail not shown here. Equal entries are not always repeated.
# Experiments:
# [1] = system: IFNAR1 surface levels in THP-1 cells; assay: THP-1 IFNAR1 surface levels (FACS); format: cell-based, human
# Method: THP-1 in vitro experiments
# THP-1-DualTM cells (InvivoGen), derived from a human monocytic cell line, isolated from a patient with acute monocytic leukaemia, were cultured as per manufacturer’s guidance. Cells were seeded at 1x10^6 cells/mL in RPMI1640 media containing 10% fetal bovine serum (FBS), 1% penicillin-streptomycin (PS) (Gibco Laboratories) with DMSO (0.1%) (control) or in media containing JMS-175- […]
# ng/mL) (Merck Life Science), ODN 2216 (1 µM) (Miltenyi Biotec), or Poly:IC (1 µg/mL) (InvivoGen).
# Tofacitinib (Cambridge Biosciences) at 0.4 µM was used for comparison against a known JAK inhibitor.
# Cells were centrifuged at 300 g for 5 minutes. Supernatant was removed and subjected to simultaneous study of the NF -κB pathway, by monitoring the activity of secreted alkaline phosphatase reporter (SEAP), and the IRF pathway, by assessing the activity o f a secreted Lucia luciferase using QUANTI - Blue ™ Solution and QUANTI -Luc™ 4 Lucia/Gaussia (InvivoGen), respectively, as per manufacturer’s instructions. Pelleted cells were used for FACS analysis using IFNα/β R1 APC-conjugated antibody or isotype control (Biotechne, FAB245A and IC002A), or unstained staining procedure with and without Zombie GreenTM (Biolegend). Samples were analysed using CytoFlex LX (Beckman) (50,000 live cells per condition). Median fluorescence intensity for APC channel gated on single cell live cells was analysed and compared as a percentage to control (no stimulation condition). […]
# [2] = system: ISG expression in SSc PBMCs; assay: SSc PBMC type I IFN signaling gene expression array, unstimulated; format: cell-based, human
# Method: PBMCs in vitro experiments
# Peripheral blood mononuclear cells (PBMCs) from healthy and SSc donors were separated using density gradient method (Leucosep™, Greiner Bio-One International) from EDTA anticoagulated peripheral blood; isolated cells were washed twice by PBS. PBMCs were then incubated in RPMI1640 […]
# For healthy PBMCs, cells were stimulated with 20 ng/mL of IFN (+/- compounds or DMSO). For SSc PBMCs, cells were in basal conditions with no additional IFN stimulation. Cells were centrifuged at 300 g for 10 minutes. […]
# RNA was extracted from cell pellets using TRIzol™ (ThermoFisher
# Scientific, Waltham, MA) and processed using Quick-RNA Miniprep Kit (Zymo Research) as per the manufacturer’s instruction.
# For Type I IFN signalling analysis, the human IFN I RT2 Profiler PCR Array (Qiagen, PAMM-016ZE) was performed on available RNA from healthy (n=3) and SSc (n=9) donors. RNA was converted to cDNA using RT2 First Strand Kit (Qiagen). Next, the cDNA was mixed with RT2 SYBR Green Mastermix (Qiagen, Venlo). Successful PCR performance was confirmed by assay tests for genomic DNA contamination, RNA sample quality, as well as single melt curve determination and <35 Ct for each gene, leading to validated gene expression of 67 genes. Relative expression for each gene was determined, firstly by ∆CT calculated using the geometric mean of 4 housekeeping genes (ACTB, GAPDH, HPRT1, RPLP0), followed by 2^(-∆CT), and expressed as fold change to control, according to manufacturer’s guidance. IFN2α-induced ISGs in healthy donors were determined using a Student’s t-test (two-tail distribution and equal variances) on the triplicate fold change in 2^(-ΔCT) values between […]
# donors). Heatmaps were generated using the “pheatmap” function in R (v4.0.2) and RStudio (v1.3.1093) applying row scaling to standardise the expression data across samples (R core team 2020.
# R Foundation for Statistical Computing). The IFN2α inducible genes determined in healthy donors […]
# 171-C. To account for Type I IFN signalling heterogeneity across samples, the mean 2^(-∆CT) for each […]
# relative gene expression, illustrated as a fold change and visualised in log2. The Type I IFN signalling array data for the patient samples is included in Source Data Figure 6, Extended Data Fig. 9.
# [3] = unstimulated PBMCs from SSc patients, one value per patient (P1-P9)
smiles,measurement,setting,value
O=C(NC1C2CNCC21)c1nn(C(=O)c2c(Cl)cccc2Cl)cc1NC(=O)c1c(Cl)cccc1Cl (stereo not shown) [FX-171-C],IFNAR1 surface levels (Fig. 5h),"[1]; IFN + compound, No IFN = 100",56.2651 and 56.964 and 56.0526
same,IFNAR1 surface levels,"[1]; THP-1, hIFNα2 25 ng/ml, 4 μM, 16 h",reduction in IFNAR1 surface levels
same,ISG expression (in words),"[2]; SSc PBMCs (n = 9), 2 µM, 16 h, compared to AP-5-145",lesser effect
same,"ADAR, Type I IFN signalling array raw data",[2]; [3],3.858 and 4.274 and 4.001 and 4.68 and 4.777 and 4.208 and 3.331 and 4.913 and 3.918
same,"BST2, Type I IFN signalling array raw data",[2]; [3],3.573 and 2.8591 and 2.177 and 3.614 and 3.672 and 2.327 and 3.468 and 1.591 and 2.873
same,"CASP1, Type I IFN signalling array raw data",[2]; [3],2.548 and 2.002 and 1.941 and 1.134 and 2.888 and 1.296 and 2.046 and 2.574 and 1.867
same,"CD86, Type I IFN signalling array raw data",[2]; [3],6.165 and 2.65 and 5.65 and 3.485 and 4.729 and 3.419 and 6.169 and 4.499 and 4.78
same,"CXCL10, Type I IFN signalling array raw data",[2]; [3],5.471 and 2.917 and 2.582 and 4.742 and 4.877 and 6.905 and 4.483 and 4.8707 and 3.923
same,"DDX58, Type I IFN signalling array raw data",[2]; [3],3.35 and 3.309 and 2.1354 and 2.913 and 3.785 and 3.502 and 1.974 and 1.829 and 2.968
same,"GBP1, Type I IFN signalling array raw data",[2]; [3],2.688 and 1.367 and 1.422 and 2.895 and 1.583 and 2.086 and 0.7206 and 2.179 and 0.5673
same,"IFI6, Type I IFN signalling array raw data",[2]; [3],3.893 and 2.681 and 0.9581 and 2.49 and 3.897 and 2.026 and 3.3942 and 1.435 and 1.657
same,"IFI16, Type I IFN signalling array raw data",[2]; [3],1.765 and 1.775 and 1.077 and 1.992 and 2.377 and 1.622 and 1.064 and 1.533 and 1.821
same,"IFIH1, Type I IFN signalling array raw data",[2]; [3],4.423 and 3.6 and 2.511 and 3.468 and 5.097 and 3.98 and 3.849 and 3.949 and 3.417
same,"IFIT1, Type I IFN signalling array raw data",[2]; [3],4.29 and 4.385 and 1.626 and 3.83 and 6.5533 and 6.518 and 4.252 and 2.844 and 3.475
same,"IFIT2, Type I IFN signalling array raw data",[2]; [3],4.664 and 3.908 and 1.678 and 5.248 and 5.235 and 3.764 and 3.486 and 3.028 and 3.269
same,"IFIT3, Type I IFN signalling array raw data",[2]; [3],3.799 and 3.675 and 1.209 and 4.928 and 5.414 and 5.436 and 3.503 and 5.877 and 2.486
same,"IFITM1, Type I IFN signalling array raw data",[2]; [3],0.9488 and 1.1781 and 0.3954 and 0.8994 and 1.9714 and 0.8768 and 1.144 and 1.6293 and 0.7125
same,"IFITM2, Type I IFN signalling array raw data",[2]; [3],4.648 and 5.173 and 4.79 and 4.974 and 4.481 and 3.9861 and 4.845 and 5.367 and 4.762
same,"IFITM3, Type I IFN signalling array raw data",[2]; [3],3.968 and 3.916 and 1.59 and 3.568 and 4.151 and 2.877 and 3.902 and 1.131 and 2.5357
same,"IRF1, Type I IFN signalling array raw data",[2]; [3],2.547 and 1.821 and 1.073 and 2.335 and 1.158 and 0.9908 and 0.6649 and 1.927 and 1.207
same,"IRF7, Type I IFN signalling array raw data",[2]; [3],6.802 and 6.586 and 3.986 and 5.798 and 5.443 and 4.601 and 5.372 and 4.2831 and 3.547
same,"IRF9, Type I IFN signalling array raw data",[2]; [3],2.19 and 2.335 and 0.975 and 2.229 and 2.461 and 1.8963 and 1.69 and 1.214 and 1.521
same,"ISG15, Type I IFN signalling array raw data",[2]; [3],3.986 and 3.922 and 0.692 and 4.262 and 5.477 and 7.495 and 2.508 and 1.711 and 2.311
same,"ISG20, Type I IFN signalling array raw data",[2]; [3],2.62 and 3.224 and 2.385 and 3.3 and 3.623 and 2.618 and 2.595 and 4.036 and 2.585
same,"MX1, Type I IFN signalling array raw data",[2]; [3],3.107 and 4.405 and 1.261 and 5.21 and 5.062 and 3.692 and 3.866 and 4.591 and 2.854
same,"MX2, Type I IFN signalling array raw data",[2]; [3],4.125 and 4.0818 and 1.607 and 3.741 and 5.0213 and 4.032 and 3.318 and 2.653 and 2.691
same,"MYD88, Type I IFN signalling array raw data",[2]; [3],3.738 and 3.075 and 2.51 and 2.925 and 2.927 and 2.376 and 3.074 and 1.908 and 3.454
same,"NMI, Type I IFN signalling array raw data",[2]; [3],2.143 and 1.85 and 1.491 and 1.973 and 3.716 and 1.264 and 1.346 and 2.497 and 2.32
same,"OAS1, Type I IFN signalling array raw data",[2]; [3],4.424 and 3.836 and 1.737 and 5.327 and 4.793 and 3.413 and 3.498 and 2.187 and 2.863
same,"OAS2, Type I IFN signalling array raw data",[2]; [3],4.608 and 3.615 and 1.642 and 3.798 and 4.119 and 3.655 and 2.504 and 2.941 and 2.821
same,"PML, Type I IFN signalling array raw data",[2]; [3],4.552 and 5.075 and 2.988 and 4.3611 and 4.177 and 3.436 and 3.3349 and 3.807 and 3.407
same,"SOCS1, Type I IFN signalling array raw data",[2]; [3],3.578 and 4.266 and 3.582 and 3.8466 and 3.6323 and 2.7 and 3.416 and 2.793 and 2.573
same,"STAT1, Type I IFN signalling array raw data",[2]; [3],0.977 and -0.7577 and -0.7275 and 0.7898 and -0.2011 and 0.5637 and -1.166 and 0.2201 and -0.8389
same,"STAT2, Type I IFN signalling array raw data",[2]; [3],3.968 and 3.159 and 2.8038 and 5.573 and 3.712 and 3.001 and 2.882 and 3.307 and 2.683
same,"STAT3, Type I IFN signalling array raw data",[2]; [3],6.676 and 4.39 and 1.897 and 3.494 and 2.053 and 1.773 and 1.353 and 3.435 and 1.673
same,"TAP1, Type I IFN signalling array raw data",[2]; [3],2.3591 and 1.9257 and 1.563 and 2.7124 and 1.578 and 1.336 and 0.8182 and 1.844 and 1.137
same,"TNFSF10, Type I IFN signalling array raw data",[2]; [3],3.902 and 3.285 and 2.141 and 3.031 and 3.789 and 2.995 and 3.1028 and 5.015 and 2.882
